“And” between values parts separate entries of the source, which are not always exact repeats. Equal entries are not always repeated.
Molecular target: T1, HIV-1 protease (Human immunodeficiency virus type 1 group M subtype B, UniProt P04585)
Assay: biochemical
Details: read-out: Protease % Inhib
Method in brief: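 Percent inhibition came from fluorescence of FITC-tagged cleavage product, separated by filtration from uncleaved substrate captured on streptavidin-coated beads. The enzyme (10 μl of 0.1 μM) and compound acted on a biotin/FITC dual-labelled peptide for one hour at room temperature in the dark. The reaction ran in 0.1 M sodium acetate, pH 5.5, with 1.0 M NaCl and 0.05% NP-40.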

Row | SMILES | inhibition at 0.123 µM | inhibition at 0.37 µM | inhibition at 1.1 µM | inhibition at 3.3 µM | inhibition at 10 µM | inhibition at 30 µM
1 | CCCC1(CCc2ccccc2)CC(O)=C(C(CC)c2cccc(NS(=O)(=O)c3cn(C)cn3)c2)C(=O)O1 (centres unmarked) [Example 41, N-[3-[1-(4-hydroxy-2-oxo-6-phenethyl-6-propyl-5,6-dihydro-2H-pyran-3-yl)-propyl]-phenyl]-1-methyl-1H-imidazole-4-sulfonamide] | 103% | 102% | 104% | 101% | 85.9% | 72.8%
2 | O=c1oc2c(c(O)c1C(c1cccc(CS(=O)(=O)c3ccccc3)c1)C1CC1)CCCCCC2 (centres unmarked) [Example 10, 3-[Cyclopropyl[3-[(phenylsulfonyl)methyl]phenyl]methyl]-5,6,7,8,9,10-hexahydro-4-hydroxy-2H-Cycloocta[b]pyran-2-one] | 102% | 112% | 116% | 119% | 129% | 130%

Molecular target: T1, HIV-1 protease
Assay: biochemical
Details: read-out: HIV Protease FITC Assay Ki
Method in brief: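 Biotinylated, FITC-labelled peptide substrate cleaved in 0.1 M sodium acetate pH 5.5, 1.0 M NaCl, 0.05% NP-40, room temperature. Filtered labelled product read by fluorescence; nonlinear least-squares fit.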

Row | SMILES | Ki
3 | CCCC1(CCc2ccccc2)CC(O)=C(C(CC)c2cccc(NS(=O)(=O)c3cn(C)cn3)c2)C(=O)O1 (centres unmarked) [Example 41, N-[3-[1-(4-hydroxy-2-oxo-6-phenethyl-6-propyl-5,6-dihydro-2H-pyran-3-yl)-propyl]-phenyl]-1-methyl-1H-imidazole-4-sulfonamide] | 3.17 nM
4 | O=c1oc2c(c(O)c1C(c1cccc(CS(=O)(=O)c3ccccc3)c1)C1CC1)CCCCCC2 (centres unmarked) [Example 10, 3-[Cyclopropyl[3-[(phenylsulfonyl)methyl]phenyl]methyl]-5,6,7,8,9,10-hexahydro-4-hydroxy-2H-Cycloocta[b]pyran-2-one] | 5.71 nM

Molecular target: T2, single chain tethered (tandem) HIV protease (HIV-1 M:B_HXB2R, UniProt P04585)
T2 construct: purified enzyme, FITC/biotin substrate assay
Assay: Tandem HIV protease assay
Assay type: biochemical
Details: read-out: FITC KI; Table II; enzyme HIV1TANDEM
Experimental: In the enzyme inhibition assay described above, the sensitivity of Ki value determination is in part limited by the ability to continue to lower the enzyme concentration for compounds with high binding affinity. To prevent de-dimerization at low enzyme concentration, a tandemly linked enzyme is prepared in which the two monomers are covalently linked by an appropriate stretch of amino acid residues. Using the latter enzyme, the sensitivity of the inhibition assay is improved since much lower enzyme concentration can be utilized, as compared to the condition using the wild-type enzyme.
The starting inhibitor concentrations are determined based on preliminary enzyme inhibition screening results which estimate the expected potency of the inhibitor. Inhibitor concentrations are then prepared using the Biomek 1000 (Beckman) and the Quadra 96 (Tomtec). Substrate (biotinylated at the amino terminal arginine and fluorescently labeled with fluorescein at the carboxyl terminal lysine), inhibitor and the tandem enzyme are allowed to react in solution at pH 5.5 (buffers identical to those used with the native dimeric enzyme) in the dark for 96 hours. Streptavidin coated polystyrene beads are added to stop the reaction. The labeled cleavage product is separated from unreacted substrate via filtration. Residual fluorescence is quantitated with the Idexx SM2000 (Idexx) and the resulting data are analyzed using the NLLSF program.

Row | SMILES | Ki
5 | CCCC1(CCC)CC(O)=C(C(c2cccc(NS(=O)(=O)c3ccc(N)cn3)c2)C(C)(C)C)C(=O)O1 (single isomer, unassigned) [Example 320, 5-Amino-N-[3(R or S)-(1-[5,6-dihydro-6,6-dipropyl-4-hydroxy-2-oxo-2H-pyran-3-yl]-2,2-dimethyl-propyl)phenyl]-2-pyridine sulfonamide] | 0.071 nM and 0.05 nM and 0.075 nM
6 | CC(C)(C)C(C1=C(O)CC(CCc2ccccc2)(CCC(F)(F)F)OC1=O)c1cccc(NS(=O)(=O)c2ccc(C#N)cn2)c1 (single isomer, unassigned) [Example 272, 5-cyano-N-[3-(R or S)-[1-[5,6-dihydro-4-hydroxy-2-oxo-6-(2-phenethyl)-6-(R or S)-(3,3,3-trifluoropropyl)-2H-pyran-3-yl]-2,2-dimethylpropyl]phenyl]-2-pyridinesulfonamide] | 3.6 nM
7 | CCC[C@@]1(CCc2ccccc2)CC(O)=C([C@@H](c2cccc(NS(=O)(=O)c3ccc(N)cn3)c2)C(C)(C)C)C(=O)O1 (single isomer, unassigned) [Example 312, 5-Amino-N-[3(R or S)-(1-[5,6-dihydro-4-hydroxy-2-oxo-6(R or S)-(2-phenylethyl)-6-propyl-2H-pyran-3-yl]-2,2-dimethylpropyl)-phenyl]-2-pyridinesulfonamide] | 0.255 nM
8 | CCC[C@@]1(CCc2ccc(F)cc2)CC(O)=C([C@H](CC)c2cccc(NS(=O)(=O)c3cn(C)cn3)c2)C(=O)O1 (single isomer, unassigned) [Example 368, N-[3-{1(R or S)-(4-Hydroxy-5,6-dihydro-2-oxo-6(R or S)-(2-(4-fluorophenyl)ethyl)-6-propyl-2H-pyran-3-yl)propyl}phenyl]-1-methyl-1H-imidazole-4-sulfonamide] | 0.232 nM
9 | CC(C)(C)C(C1=C(O)CC(CCc2ccccc2)(CCC(F)(F)F)OC1=O)c1cccc(NS(=O)(=O)c2ccc(N)cn2)c1 (single isomer, unassigned) [Example 271, 5-amino-N-[3-(R or S)-[1-[5,6-dihydro-4-hydroxy-2-oxo-6-(2-phenethyl)-6-(R or S)-(3,3,3-trifluoropropyl)-2H-pyran-3-yl]-2,2-dimethylpropyl]phenyl]-2-pyridinesulfonamide] | 0.051 nM
10 | CCCC1(CCc2ccccc2)CC(O)=C(C(c2cccc(NS(=O)(=O)c3cc(C(F)(F)F)ccn3)c2)C(C)(C)C)C(=O)O1 (single isomer, unassigned) [Example 296, 4-Trifluoromethyl-N-[3(R or S)-[1-[5,6-dihydro-4-hydroxy-2-oxo-6(R or S)-(2-phenethyl)-6(R or S)-n-propyl-2H-pyran-3-yl]-2,2-dimethylpropyl]-phenyl]-2-pyridinesulfonamide] | 0.042 nM
11 | CCC(C1=C(O)CC(CCc2ccccc2)(CCc2ccccc2)OC1=O)c1cccc(NS(=O)(=O)c2ccc(C(F)(F)F)cn2)c1 (single isomer, unassigned) [Example 287, 5-Trifluoromethyl-N-[3-(R or S)-[1-[4-hydroxy-2-oxo-6,6-di-phenethyl-5,6-dihydro-2H-pyran-3-yl]-propyl]-phenyl]-2-pyridinesulfonamide] | 0.038 nM
12 | CCC(C1=C(O)CC(CCc2ccccc2)(CCc2ccccc2)OC1=O)c1cccc(NS(=O)(=O)c2ccc(C#N)cn2)c1 (single isomer, unassigned) [Example 326, N-[3(R or S)-(1-[6,6-Bis(2-phenyl-ethyl)-5,6-dihydro-4-hydroxy-2-oxo-2H-pyran-3-yl]propyl)phenyl]-5-cyano-2-pyridinesulfonamide] | 0.029 nM
13 | CCC(C1=C(O)CC(CCc2ccccc2)(CCc2ccccc2)OC1=O)c1cccc(NS(=O)(=O)c2cn(C)cn2)c1 (single isomer, unassigned) [Example 324, N-[3(R or S)-(1-[6,6-Bis(2-phenyl-ethyl)-5,6-dihydro-4-hydroxy-2-oxo-2H-pyran-3-yl]propyl)phenyl]-1-methyl-1H-imidazole-4-sulfonamide] | 0.156 nM
14 | CCCC1(CCC)CC(O)=C(C(CC)c2cccc(NS(=O)(=O)c3ccc(N)cn3)c2)C(=O)O1 (single isomer, unassigned) [Example 363, N-[3-{1(R or S)-(4-Hydroxy-5,6-dihydro-2-oxo-6,6-dipropyl-2H-pyran-3-yl)-propyl}phenyl]-5-aminopyridine-2-sulfonamide] | 0.083 nM
15 | CCC(C1=C(O)CC(CCc2ccccc2)(CCc2ccccc2)OC1=O)c1cccc(NS(=O)(=O)c2cc(C(F)(F)F)ccn2)c1 (single isomer, unassigned) [Example 289, 4-Trifluoromethyl-N-[3-(R or S)-[1-[4-hydroxy-2-oxo-6,6-di-phenethyl-5,6-dihydro-2H-pyran-3-yl]-propyl]-phenyl]-2-pyridinesulfonamide] | 0.133 nM
16 | CCCC1(CCc2ccccc2)CC(O)=C(C(c2cccc(NS(=O)(=O)c3ccc(C(F)(F)F)cn3)c2)C(C)(C)C)C(=O)O1 (single isomer, unassigned) [Example 295, 5-Trifluoromethyl-N-[3 (R or S)-[1-[5,6-dihydro-4-hydroxy-2-oxo-6(R or S)-(2-phenethyl)-6(R or S)-n-propyl-2H-pyran-3-yl]-2,2-dimethylpropyl]-phenyl]-2-pyridinesulfonamide] | 0.071 nM
17 | CCCC1(CCC)CC(O)=C(C(c2cccc(NS(=O)(=O)c3ccc(C#N)cn3)c2)C(C)(C)C)C(=O)O1 (single isomer, unassigned) [Example 322, 5-Cyano-N-[3(R or S)-(1-[5,6-dihydro-6,6-dipropyl-4-hydroxy-2-oxo-2H-pyran-3-yl]-2,2-dimethyl-propyl)phenyl]-2-pyridine-sulfonamide] | 1.07 nM and 1.29 nM
18 | CCC(C1=C(O)CC(CCc2ccccc2)(CCc2ccccc2)OC1=O)c1cccc(NS(=O)(=O)c2cc(C(F)(F)F)ccn2)c1 (single isomer, unassigned) [Example 290, 4-Trifluoromethyl-N-[3-(R or S)-[1-[4-hydroxy-2-oxo-6,6-di-phenethyl-5,6-dihydro-2H-pyran-3-yl]-propyl]-phenyl]-2-pyridinesulfonamide] | 1.88 nM
19 | CC(C)(C)C(C1=C(O)CC(CCc2ccccc2)(CCC(F)(F)F)OC1=O)c1cccc(NS(=O)(=O)c2ccc(N)cn2)c1 (single isomer, unassigned) [Example 268, 5-amino-N-[3-(R or S)-[1-[5,6-dihydro-4-hydroxy-2-oxo-6-(2-phenethyl)-6-(R or S)-(3,3,3-trifluoropropyl)-2H-pyran-3-yl]-2,2-dimethylpropyl]phenyl]-2-pyridinesulfonamide] | 0.835 nM
20 | CC(C)(C)C(C1=C(O)CC(CCc2ccccc2)(CCC(F)(F)F)OC1=O)c1cccc(NS(=O)(=O)c2ccc(C#N)cn2)c1 (single isomer, unassigned) [Example 266, 5-cyano-N-[3-(R or S)-[1-[5,6-dihydro-4-hydroxy-2-oxo-6-(2-phenethyl)-6-(R or S)-(3,3,3-trifluoropropyl)-2H-pyran-3-yl]-2,2-dimethylpropyl]phenyl]-2-pyridinesulfonamide] | 0.033 nM
21 | CCC[C@@]1(CCc2ccccc2)CC(O)=C([C@@H](c2cccc(NS(=O)(=O)c3ccc(C#N)cn3)c2)C(C)(C)C)C(=O)O1 (single isomer, unassigned) [Example 302, 5-Cyano-N-[3(R or S)-(1-[5,6-dihydro-4-hydroxy-2-oxo-6(R or S)-(2-phenylethyl)-6-propyl-2H-pyran-3-yl]-2,2-dimethylpropyl)-phenyl]-2-pyridinesulfonamide] | 1.87 nM and 3.6 nM
22 | Cn1cnc(S(=O)(=O)Nc2cccc(C(C3=C(O)CC(CCc4ccccc4)(CCc4ccccc4)OC3=O)C(C)(C)C)c2)c1 (single isomer, unassigned) [Example 357, N-[3-{1(R or S)-(4-Hydroxy-5,6-dihydro-2-oxo-6,6-bis(2-phenylethyl)-2H-pyran-3-yl)-2,2-dimethylpropyl}phenyl]-1-methyl-1H-imidazole-4-sulfonamide] | 48.5 nM

From patent US6169181A, “Compounds useful to treat retroviral infections” (Pharmacia & Upjohn Company, priority 1998, dated 2001)
